We go through 21 compounds from patent US10899758B2, “Inhibitors of the menin-MLL interaction” (Vitae Pharmaceuticals, LLC, priority 2016, dated 2021).

Where two headings read alike, the source gives them in different places.

In experiment [1] the target is T1, menin/MLL binding (biotinylated wild-type or mutated menin and MLL-AF9 fusion protein) (Homo sapiens, UniProt O00255).
T1 construct: biotinylated (1) wild-type menin or (2) mutated menin (described in Nature (2012) Vol. 482, pp. 542-548); fused on or other part: Biotin attached chemically (Sulfo-NHS-Biotin); no fused second protein is printed for menin
T1 sequence (O00255 1-459 limits assumed): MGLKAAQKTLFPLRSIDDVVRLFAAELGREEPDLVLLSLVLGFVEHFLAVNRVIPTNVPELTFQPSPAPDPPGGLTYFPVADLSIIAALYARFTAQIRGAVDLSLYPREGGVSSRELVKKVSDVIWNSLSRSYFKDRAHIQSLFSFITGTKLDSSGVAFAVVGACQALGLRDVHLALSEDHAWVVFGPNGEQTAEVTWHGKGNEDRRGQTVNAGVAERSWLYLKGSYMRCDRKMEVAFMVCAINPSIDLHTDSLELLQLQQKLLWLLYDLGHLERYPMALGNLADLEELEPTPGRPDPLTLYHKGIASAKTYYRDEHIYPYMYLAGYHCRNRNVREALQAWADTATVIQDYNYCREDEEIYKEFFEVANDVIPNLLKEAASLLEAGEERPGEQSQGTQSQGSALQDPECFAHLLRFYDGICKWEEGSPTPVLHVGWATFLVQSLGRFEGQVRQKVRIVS
The experiment can be described thus: Assay 1 (Binding Assay): AlphaLISA menin/MLL binding. The note with it: 5 nM biotinylated menin, MLL-AF9-FLAG lysate. The method in brief: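 Biotinylated E. coli-expressed menin (wild-type or mutant), 5 nM, incubated 30 min RT with compound and HEK293 lysate of MLL1-1,396–AF9-FLAG in pH 7.4 Tris buffer, 5% DMSO, 1 mM DTT. Anti-FLAG acceptor and streptavidin donor beads added, 60 min RT, AlphaLISA signal read. IC50 from four-parameter fit of % inhibition.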

Experiment [2] relates to human acute monocytic leukemia cell line MV-4-11. The experiment can be described thus: Assay 2 (Cell Proliferation Assay), ATP quantitation (CellTiter-Glo). The experiment is classed as cell-based. The note with it: MV-4-11 cells, read-out: Assay 2 (EC50, inhibition of cell proliferation). The method in brief: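 Cells (1.67×10^4/well, 10% FBS medium) incubated ±compound 72 h at 37 °C, 5% CO2; HL-60 served as toxicity control. ATP read by CellTiter-Glo luminescence; % inhibition scaled between DMSO and a potent menin inhibitor at ≥100×LD50.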
(In general: ATP-based viability assays read luminescence as a measure of living cells.)

Broadly, the IC50 is the midpoint of a concentration-inhibition curve. The low end stands for higher potency, the high end for lower potency. In experiment [1], `CC(C)N(C)C(=O)c1cc(F)ccc1-n1cc(C2CCN(CC[C@H]3CC[C@H](NS(C)(=O)=O)CC3)CC2)c2ccncc21` [Example 19, 5-fluoro-N-isopropyl-N-methyl-2-(3-(1-(2-(trans-4-(methylsulfonamido)cyclohexyl)ethyl)piperidin-4-yl)-1H-pyrrolo[2,3-c]pyridin-1-yl)benzamide] registered an IC50 of less than 100 nM. Also, the EC50 in experiment [2] (Homo sapiens, MV4-11, 72 h) was less than 100 nM.

`CC(C)N(C)C(=O)c1cc(F)ccc1-n1cc(C2CCN(Cc3ccc(Cl)cc3)CC2)c2ccncc21` [Example 10, 2-(3-(1-(4-chorobenzyl)piperidin-4-yl)-1H-pyrrolo[2,3-c]pyridin-1-yl)-5-fluoro-N-isopropyl-N-methylbenzamide] yielded an IC50 in experiment [1] of less than 100 nM. Moreover, in experiment [2] (Homo sapiens, MV4-11, 72 h), the EC50 was in the range of 100 to 1000 nM.

On to `CC(C)N(C)C(=O)c1cc(F)ccc1-n1cc(C2CCN(Cc3ccc4[nH]c(C#N)cc4c3)CC2)c2ccncc21` [Example 7, 2-(3-(1-((2-cyano-1H-indol-5-yl)methyl)piperidin-4-yl)-1H-pyrrolo[2,3-c]pyridin-1-yl)-5-fluoro-N-isopropyl-N-methylbenzamide], for which the IC50 in experiment [1] is less than 100 nM. For the same compound, the EC50 in experiment [2] (Homo sapiens, MV4-11, 72 h) was less than 100 nM.

In experiment [1], `CC(C)N(C)C(=O)c1cc(F)ccc1-n1cc(C2CCN(Cc3ccc(NS(C)(=O)=O)cc3)CC2)c2ccncc21` [Example 23, 5-fluoro-N-isopropyl-N-methyl-2-(3-(1-(4-(methylsulfonamido)benzyl)piperidin-4-yl)-1H-pyrrolo[2,3-c]pyridin-1-yl)benzamide] came in with an IC50 of less than 100 nM. Also, the EC50 in experiment [2] (Homo sapiens, MV4-11, 72 h) was no less than 1000 nM.

In experiment [1], `CC(C)N(C)C(=O)c1cc(F)ccc1-n1cc([C@H]2CC[C@@H](N3CCCC3)CC2)c2ccncc21` [Example 56, 5-fluoro-N-isopropyl-N-methyl-2-(3-(cis-4-(pyrrolidin-1-yl)cyclohexyl)-1H-pyrrolo[2,3-c]pyridin-1-yl)benzamide] showed an IC50 of less than 100 nM. Also, the EC50 in experiment [2] (Homo sapiens, MV4-11, 72 h) lay within 100 to 1000 nM.

Turning to `Cc1c(CN2CCC(c3cn(-c4ccc(F)cc4)c4cnccc34)CC2)ccc2[nH]c(C#N)cc12` [Example 37, 5-((4-(1-(4-fluorophenyl)-1H-pyrrolo[2,3-c]pyridin-3-yl)piperidin-1-yl)methyl)-4-methyl-1H-indole-2-carbonitrile], the IC50 in experiment [1] was less than 100 nM. In experiment [2] (Homo sapiens, MV4-11, 72 h), the EC50 is 100 to 1000 nM.

Take `CC(=O)N[C@H]1CC[C@H](CN2CCC(c3cn(-c4ccc(F)cc4C(=O)N(C)C(C)C)c4cnccc34)CC2)CC1` [Example 20, 2-(3-(1-(((1r,4r)-4-acetamidocyclohexyl)methyl)piperidin-4-yl)-1H-pyrrolo[2,3-c]pyridin-1-yl)-5-fluoro-N-isopropyl-N-methylbenzamide]: the half-maximal inhibitory concentration (IC50) in experiment [1] is less than 100 nM. The EC50 in experiment [2] (Homo sapiens, MV4-11, 72 h) is 100 to 1000 nM.

For the compound `CC(C)N(C)C(=O)c1cc(F)ccc1-n1cc(C2CCNC(Cc3ccccc3)C2)c2ccncc21` (stereo not drawn) [Example 31, 2-(3-(2-benzylpiperidin-4-yl)-1H-pyrrolo[2,3-c]pyridin-1-yl)-5-fluoro-N-isopropyl-N-methylbenzamide], in experiment [1], the IC50 is less than 100 nM. In addition, the EC50 in experiment [2] (Homo sapiens, MV4-11, 72 h) is less than 100 nM.

As for `CC(c1ccccc1)N1CCC(c2cn(-c3ccc(F)cc3C(=O)N(C)C(C)C)c3cnccc23)CC1` (stereo not drawn) [Example 30, 5-fluoro-N-isopropyl-N-methyl-2-(3-(1-(1-phenylethyl)piperidin-4-yl)-1H-pyrrolo[2,3-c]pyridin-1-yl)benzamide], the IC50 in experiment [1] is less than 100 nM. Also, the EC50 in experiment [2] (Homo sapiens, MV4-11, 72 h) is 100 to 1000 nM.

In turn, `CC(C)N(C)C(=O)c1cc(F)ccc1-n1cc(C2CCCN(Cc3ccc4c(c3)NC(=O)C4(C)C#N)C2)c2ccncc21` (stereo not drawn) [Example 88, 2-(3-(1-((3-cyano-3-methyl-2-oxoindolin-6-yl)methyl)piperidin-3-yl)-1H-pyrrolo[2,3-c]pyridin-1-yl)-5-fluoro-N-isopropyl-N-methylbenzamide] gave an IC50 in experiment [1] of less than 100 nM. For the same compound, in experiment [2] (Homo sapiens, MV4-11, 72 h), the EC50 was less than 100 nM.

Turning to `CC(C)N(C)C(=O)c1cc(F)ccc1-n1cc([C@H]2CC[C@H](N3CCCC3)CC2)c2ccncc21` [Example 55, 5-fluoro-N-isopropyl-N-methyl-2-(3-(trans-4-(pyrrolidin-1-yl)cyclohexyl)-1H-pyrrolo[2,3-c]pyridin-1-yl)benzamide], in experiment [1], the IC50 was less than 100 nM. In addition, the EC50 in experiment [2] (Homo sapiens, MV4-11, 72 h) was 100 to 1000 nM.

`CC(C)N(C(=O)c1cc(F)ccc1-n1cc(C2CCN(C[C@H]3CC[C@H](NS(C)(=O)=O)CC3)C2)c2ccncc21)C(C)C` (stereo partly drawn) [Example 127, 5-fluoro-N,N-diisopropyl-2-(3-(1-((trans-4-(methylsulfonamido)cyclohexyl)methyl)pyrrolidin-3-yl)-1H-pyrrolo[2,3-c]pyridin-1-yl)benzamide]: the IC50 in experiment [1] is less than 100 nM. Moreover, the EC50 in experiment [2] (Homo sapiens, MV4-11, 72 h) is less than 100 nM.

As to `CC(C)N(C)C(=O)c1cc(F)ccc1-n1cc(C2CCN(CCC3CCN(S(C)(=O)=O)CC3)CC2)c2ccncc21` [Example 28, 5-fluoro-N-isopropyl-N-methyl-2-(3-(1-(2-(1-(methylsulfonyl)piperidin-4-yl)ethyl)piperidin-4-yl)-1H-pyrrolo[2,3-c]pyridin-1-yl)benzamide], the IC50 in experiment [1] is less than 100 nM. For the same compound, the EC50 in experiment [2] (Homo sapiens, MV4-11, 72 h) lay within 100 to 1000 nM.

`CC(C)N(C)C(=O)c1cc(F)ccc1-n1cc([C@H]2CC[C@@H](N3CCCC(O)C3)CC2)c2ccncc21` (stereo partly drawn) [Example 113, 5-fluoro-2-(3-(cis-4-(3-hydroxypiperidin-1-yl)cyclohexyl)-1H-pyrrolo[2,3-c]pyridin-1-yl)-N-isopropyl-N-methylbenzamide] registered a 50% inhibitory concentration (IC50) in experiment [1] of less than 100 nM. Besides, the EC50 in experiment [2] (Homo sapiens, MV4-11, 72 h) is 100 to 1000 nM.

For `CC(C)N(C)C(=O)c1cc(F)ccc1-n1cc(C2CCC(N(C)CC3CCC(NS(C)(=O)=O)CC3)CC2)c2ccncc21` (single isomer, unassigned) [Example 128, 5-fluoro-N-isopropyl-N-methyl-2-(3-(4-(methyl((4-(methylsulfonamido)cyclohexyl)methyl)amino)cyclohexyl)-1H-pyrrolo[2,3-c]pyridin-1-yl)benzamide], the IC50 in experiment [1] was less than 100 nM. Moreover, the EC50 in experiment [2] (Homo sapiens, MV4-11, 72 h) was less than 100 nM.

In experiment [1], `Cc1c(CN2CCC(c3cn(-c4ccc(F)cc4C(=O)N(C)C(C)C)c4cncnc34)CC2)ccc2[nH]c(C#N)cc12` [Example 63, 2-(7-(1-((2-cyano-4-methyl-1H-indol-5-yl)methyl)piperidin-4-yl)-5H-pyrrolo[3,2-d]pyrimidin-5-yl)-5-fluoro-N-isopropyl-N-methylbenzamide] yielded an IC50 of less than 100 nM. For the same compound, the EC50 in experiment [2] (Homo sapiens, MV4-11, 72 h) is less than 100 nM.

As to `CC(C)N(C(=O)c1cc(F)ccc1-n1cc(C2CN(CC[C@H]3CC[C@H](NC(=O)OC(C)(C)C)CC3)C2)c2ccncc21)C(C)C` [Example 136, tert-butyl ((1r,4r)-4-(2-(3-(1-(2-(diisopropylcarbamoyl)-4-fluorophenyl)-1H-pyrrolo[2,3-c]pyridin-3-yl)azetidin-1-yl)ethyl)cyclohexyl)carbamate], the IC50 in experiment [1] is less than 100 nM. In experiment [2] (Homo sapiens, MV4-11, 72 h), the EC50 was less than 100 nM.

In turn, `CC(C)N(C)C(=O)c1cc(F)ccc1-n1cc(C2CCC(NCc3ccc4[nH]c(=O)[nH]c4c3)CC2)c2ccncc21` (single isomer, unassigned) [Example 60, 5-fluoro-N-isopropyl-N-methyl-2-(3-(4-(((2-oxo-2,3-dihydro-1H-benzo[d]imidazol-5-yl)methyl)amino)cyclohexyl)-1H-pyrrolo[2,3-c]pyridin-1-yl)benzamide] yielded an IC50 in experiment [1] of less than 100 nM. For the same compound, the EC50 in experiment [2] (72 h) is 100 to 1000 nM.

In turn, `CC(C)N(C)C(=O)c1cc(F)ccc1-c1cn(C2CCCN(Cc3ccc4[nH]c(=O)[nH]c4c3)C2)c2ccncc12` (stereo not drawn) [Example 74, 5-fluoro-N-isopropyl-N-methyl-2-(1-(1-((2-oxo-2,3-dihydro-1H-benzo[d]imidazol-5-yl)methyl)piperidin-3-yl)-1H-pyrrolo[3,2-c]pyridin-3-yl)benzamide] came in with an IC50 in experiment [1] of less than 100 nM. Besides, the EC50 in experiment [2] (Homo sapiens, MV4-11, 72 h) was no less than 1000 nM.

As to `CC(=O)OCCn1c(=O)[nH]c2cc(CN3CCC[C@H](c4cn(-c5ccc(F)cc5C(=O)N(C)C(C)C)c5cnccc45)C3)ccc21` [Example 85, (R)-2-(5-((3-(1-(4-fluoro-2-(isopropyl(methyl)carbamoyl)phenyl)-1H-pyrrolo[2,3-c]pyridin-3-yl)piperidin-1-yl)methyl)-2-oxo-2,3-dihydro-1H-benzo[d]imidazol-1-yl)ethyl acetate], the IC50 in experiment [1] is less than 100 nM. Besides, the EC50 in experiment [2] (Homo sapiens, MV4-11, 72 h) is less than 100 nM.

Compound `Cc1c(CN2CCC(n3c(=O)n(-c4ccc(F)cc4)c4cnccc43)CC2)ccc2[nH]c(C#N)cc12` [Example 80, 5-((4-(3-(4-fluorophenyl)-2-oxo-2,3-dihydro-1H-imidazo[4,5-c]pyridin-1-yl)piperidin-1-yl)methyl)-4-methyl-1H-indole-2-carbonitrile] returned an IC50 in experiment [1] of less than 100 nM. For the same compound, the EC50 in experiment [2] (Homo sapiens, MV4-11, 72 h) was no less than 1000 nM.
